# Source: ChEMBL document CHEMBL3044551, “Synthesis of optically active N-(2-pyridyloxiran-2-ylmethyl) benzenesulfonamide derivatives and their herbicidal activity” (Biosci Biotechnol Biochem, 2001)
# Activity calls are given as the source filed them. No cut-off for these calls is given here.
# How the values were obtained:
# [1] = system: Oryza sativa; experiment: Toxicity in two-leaf stage Oryza sativa (rice) plants exposed to compound 3 days post transplantation assessed as phytotoxicity scores at 0.5 kg ai/ha measured 2 weeks post compound treatment; type: organism-based; details: in vivo, 336 h
# [2] = system: Oryza sativa; experiment: Toxicity in direct seeded Oryza sativa (rice) plants assessed as phytotoxicity scores at 0.5 kg ai/ha measured 2 weeks post compound treatment; type: organism-based; details: in vivo, 336 h
# [3] = system: Cyperus serotinus; experiment: Herbicidal activity against Cyperus serotinus exposed to compound at 1.5 to 2 leaf stage assessed as herbicidal rate scores at 0.5 kg ai/ha measured 2 weeks post compound treatment by pot test; type: functional
# [4] = system: Schoenoplectiella juncoides; experiment: Herbicidal activity against Schoenoplectiella juncoides exposed to compound at 1.5 to two-leaf stage assessed as herbicidal rate scores at 0.5 kg ai/ha measured 2 weeks post compound treatment by pot test; type: functional
# [5] = system: Rotala indica; experiment: Herbicidal activity against Rotala indica exposed to compound at 1.5 to 2 leaf stage assessed as herbicidal rate scores at 0.5 kg ai/ha measured 2 weeks post compound treatment by pot test; type: functional
# [6] = system: Echinochloa oryzicola; experiment: Herbicidal activity against Echinochloa oryzicola exposed to compound at 1.5 to two-leaf stage assessed as herbicidal rate scores at 0.5 kg ai/ha measured 2 weeks post compound treatment by pot test; type: functional
# [7] = system: Echinochloa oryzicola; experiment: Herbicidal activity against germinated Echinochloa oryzicola assessed as inhibition of above-ground shoot length growth after 7 days post compound treatment by petri dish test; type: functional; details: for EC50: 168 h, read-out: ED50 (the source's name)
compound,measurement,setting,value
CN(CC1(c2cccc(Cl)n2)CO1)S(=O)(=O)c1ccc2c(c1)CCCC2 (racemic),Activity,[1],0
same,Activity,[2],0
same,Activity,[3],8
same,Activity,[4],2
same,Activity,[5],10
same,Activity,[6],8
same,EC50,[7],0.11 µg/mL
Cc1cc(S(=O)(=O)N(C)CC2(c3cccc(Cl)n3)CO2)ccc1Cl (racemic),Activity,[1],0
same,Activity,[2],10
same,Activity,[3],9
same,Activity,[4],4
same,Activity,[5],9
same,Activity,[6],10
same,EC50,[7],0.07 µg/mL
Cc1cc(S(=O)(=O)N(C)C[C@@]2(c3cccc(Cl)n3)CO2)ccc1Cl,Activity,[1],0
same,Activity,[2],0
same,Activity,[3],2
same,Activity,[4],0
same,Activity,[5],2
same,Activity,[6],1
same,ED50,[7],inactive
Cc1cc(S(=O)(=O)N(C)C[C@]2(c3cccc(Cl)n3)CO2)ccc1Cl,Activity,[1],1
same,Activity,[2],10
same,Activity,[3],10
same,Activity,[4],7
same,Activity,[5],10
same,Activity,[6],10
same,EC50,[7],0.035 µg/mL
CN(C[C@@]1(c2cccc(Cl)n2)CO1)S(=O)(=O)c1ccc2c(c1)CCCC2,Activity,[1],0
same,Activity,[2],0
same,Activity,[3],0
same,Activity,[4],0
same,Activity,[5],0
same,Activity,[6],0
same,ED50,[7],inactive
CN(C[C@]1(c2cccc(Cl)n2)CO1)S(=O)(=O)c1ccc2c(c1)CCCC2,Activity,[1],0
same,Activity,[2],1
same,Activity,[3],9
same,Activity,[4],3
same,Activity,[5],10
same,Activity,[6],9
same,EC50,[7],0.05 µg/mL
